Measurements taken from patent EP0970697A1, “CERVICAL MATURING AGENT” (TORAY INDUSTRIES, INC., priority 1997, dated 1999).
Read-outs that look alike come from different tables or passages of the source.

Assays:
[1] = test system: cervical canal; settings: mice; high dosage of 100 µg to 200 µg (about 2 to 4 mg per kg of weight) required; cited from earlier work
[2] = test system: cervical canal; test: Cervical ripening action (maximum tension and slope in extension of the extracted cervical canal after intravaginal administration); type: in vivo, Hartley mature guinea pigs; settings: 10µg, intravaginal administration three times, cervical canal extracted 4 hours after final administration; maximum tension and slope compared with the base administration group, Dunnett's method
Experimental: The cervical ripening actions of compounds of formula (I) were examined by using Hartley mature guinea pigs (nine-week-old, clean animals).
In order to compare with these compounds, the action of BPS was also tested. Experiment was carried out for 4 to 14 samples per group.
In the test, 100 µl of a test medicine or a base thereof was administered to the vagina at 9 o'clock and 17 o'clock, and 9 o'clock on the next day, and a guinea pig was dissected to extract the cervical canal 4 hours after the final administration. Then, the cervical canal was extended at a rate of 2 mm/min to measure tension generated in the tissue with time. As an index for cervical ripening, the maximum tension generated up to breakage of the tissue, and the slope obtained by dividing the maximum tension by the distance of extension were examined. It is thought that decreases in these values indicate ripening of the cervical canal. A test medicine was dissolved in phosphate buffered saline, and then mixed with 3% hydroxypropyl cellulose.
Figs. 1 and 2 show changes in the maximum tension and the slope, respectively, caused by the test medicines. (*: P < 0.05, **: P < 0.01, Dunnett's method, comparison with the base administration group).

SMILES | cervical ripening action [1] | cervical ripening action [2]
CC#CCC(C)[C@H](O)/C=C/[C@@H]1[C@H]2c3cccc(CCCC(=O)O)c3O[C@H]2C[C@H]1O (mixture of isomers) [BPS, beraprost sodium, reference compound] | exhibits a cervical ripening action | no cervical ripening action
O=C(O)COc1cccc2c1OC1CC(O)C(C=CC(O)C3CCCC3)C21 (centres unmarked) [Compound-1] | – | significant cervical ripening action
O=C(O)COc1cccc2c1OC1CC(O)C(C=CC(O)C3CCCCC3)C21 (centres unmarked) [Compound-2] | – | significant cervical ripening action
O=C(O)CCc1cccc2c1O[C@H]1C[C@@H](O)[C@H](/C=C/[C@@H](O)CC3CCCCC3)[C@@H]21 [Compound-3] | – | significant cervical ripening action
